# Test system: TMPRSS2
# Assay: not given
# Design: method as in earlier work
# Details: top 50 compounds by AUC, Figure 2 source data; cited from earlier work
row,Structure (SMILES),max response (%)
1,CS(=O)(=O)O.C[C@H](N)C(=O)N[C@@H](C)C(=O)NC1[C@H]2CN(c3nc4c(cc3F)c(=O)c(C(=O)O)cn4-c3ccc(F)cc3F)C[C@@H]12 (some centres unmarked) [NCGC00261969-01],-25.1766%
2,C=C1C(=O)O[C@@H]2[C@H]3O[C@]3(C)CC/C=C(/C)CC[C@@H]12 [NCGC00024683-23],-10.5725%
3,CC(=O)Oc1cccc(O)c1 [NCGC00095054-05],-8.588%
4,CC=CC1C(C(=O)OCc2c(F)c(F)c(COC)c(F)c2F)C1(C)C (centres unmarked) [NCGC00319021-01],-16.0283%
5,Nc1nc2ccc(OC(F)(F)F)cc2s1 [NCGC00015882-15],-16.2214%
6,CC(C(=O)O)c1ccc(C(=O)c2cccs2)cc1 (centres unmarked) [NCGC00094916-06],-15.5344%
7,CN[C@H]1C[C@@H](N)[C@H](O)[C@@H](O[C@@H]2O[C@H](CO)[C@H](O)[C@@H]3OC4(O[C@H]23)O[C@H]([C@@H](N)CO)[C@H](O)[C@H](O)[C@H]4O)[C@@H]1O (some centres unmarked) [NCGC00188433-02],-14.1688%
8,Cc1cc(C)cc(OCC2CNC(=O)O2)c1 (centres unmarked) [NCGC00095116-05],-5.458%
9,CCC(=O)c1ccc2c(c1)N(CCCN(C)C)c1ccccc1S2.Cl [NCGC00015838-06],-16.7557%
10,C[C@]12CCC(=O)C=C1CC[C@@H]1[C@@H]2[C@@H](O)C[C@@]2(C)[C@H]1CC[C@]2(O)C(=O)CO [NCGC00022848-17],-0.7252%
11,CN(C)C(=O)COC(=O)Cc1ccc(OC(=O)c2ccc(N=C(N)N)cc2)cc1.CS(=O)(=O)O [NCGC00167526-02],-95.3053%
12,CCCNCC(O)COc1ccccc1C(=O)CCc1ccccc1 (centres unmarked) [NCGC00015819-15],-5.725%
13,CC(N)C12CC3CC(CC(C3)C1)C2.Cl (centres unmarked) [NCGC00159491-04],-13.9313%
14,COc1ccc(CN2CCNCC2)c(OC)c1OC [NCGC00016697-04],-13.9313%
15,CC(=O)Oc1cc(C(C)C)c(OCCN(C)C)cc1C [NCGC00015678-10],-9.504%
16,O=C(c1ccc(F)cc1)C1CCN(CCn2c(=O)[nH]c3ccccc3c2=O)CC1 [NCGC00021146-09],-16.7557%
17,C=C1CC[C@H](O)C/C1=C\C=C1/CCC[C@]2(C)[C@@H]([C@H](C)/C=C/[C@H](C)C(C)C)CC[C@@H]12 [NCGC00166307-05],-20.0382%
18,Cl.NCC1CCC(C(=O)Oc2ccc(CCC(=O)O)cc2)CC1 (centres unmarked) [NCGC00164584-03],-89.9618%
19,S=P(N1CC1)(N1CC1)N1CC1 [NCGC00095042-09],-29.4275%
20,Clc1cccc(C(c2ccc3nc[nH]c3c2)n2ccnc2)c1 (centres unmarked) [NCGC00181034-03],-10.9542%
21,N=C(N)c1ccc(OCCCOc2ccc(C(=N)N)cc2Br)c(Br)c1 [NCGC00189076-01],-77.315%
22,COc1cc(C)c(Cc2cnc(N)nc2N)cc1OC [NCGC00167523-03],-8.206%
23,O=[N+]([O-])C(Br)(CO)CO [NCGC00164057-03],-6.336%
24,N=C(N)c1ccc2cc(OC(=O)c3ccc(N=C(N)N)cc3)ccc2c1 [NCGC00160398-05],-96.6794%
25,COc1cc(N)c(Cl)cc1C(=O)NC1CCN(Cc2ccccc2)CC1 [NCGC00016951-05],-0.1908%

# Molecular target: T1, Recombinant Human TMPRSS2 (Homo sapiens, UniProt O15393)
# T1 construct: human TMPRSS2 residues 106492, N-terminal 6x His-tag; 6x His-tag (N); purchased Cusabio CSB-YP023924HU; host or cells: yeast
# Assay: TMPRSS2 biochemical assay (Boc-Gln-Ala-Arg-AMC fluorogenic substrate)
# Details: first round of screening on the NCATS in-house library (docking score selection); read-out: IC50
# Method: Inhibitors of TMPRSS2 were tested using a high throughput activity assay. […] TMPRSS2 (5 µl, 0.018 mg/ml) in assay buffer (50 mM Tris pH 8, 150 mM NaCl, 0.01% Tween20) was dispensed to that, using a BioRAPTR (Beckman Coulter), for a total assay volume of 5 µl.
# After incubation at room temperature for 1 h, fluorescence was measured. […] Raw plate reads for each titration point were normalized relative to a positive control containing no enzyme (0% activity, full inhibition) and a negative control containing DMSO-only wells (100% activity, basal activity). Data normalization was performed using GraphPad Prism (GraphPad Software, San Diego, CA).
# We employed the curve fitting algorithm available in the SciPy package (version 1.10.1)[61] to derive the Hill slope and the IC50 value, along with their corresponding error estimates.
# T1 sequence (O15393 106-492 limits assumed): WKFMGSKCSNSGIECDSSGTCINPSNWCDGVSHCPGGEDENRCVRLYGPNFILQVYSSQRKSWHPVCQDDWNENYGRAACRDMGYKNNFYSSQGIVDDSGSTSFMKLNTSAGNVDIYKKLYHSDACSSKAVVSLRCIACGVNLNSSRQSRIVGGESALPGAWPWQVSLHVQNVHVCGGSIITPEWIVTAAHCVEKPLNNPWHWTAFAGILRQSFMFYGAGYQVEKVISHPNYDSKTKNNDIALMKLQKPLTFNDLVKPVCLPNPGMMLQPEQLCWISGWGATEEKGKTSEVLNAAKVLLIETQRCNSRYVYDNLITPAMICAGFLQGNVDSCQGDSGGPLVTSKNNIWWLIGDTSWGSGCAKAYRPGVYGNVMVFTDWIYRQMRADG
row,Structure (SMILES),IC50
1,O=C(NCc1ccc(-c2cnc3c(Oc4ccccc4)nccn23)cc1)c1ccn[nH]1 [NCGC00413991-01],35.5 µM
2,CCCCC(=O)Oc1ccc2oc(-c3ccc(OC)cc3)cc(=O)c2c1 [NCGC00100604-01],12.6 µM
3,CC(=O)Nc1cccc(-c2nc(-c3c(C)noc3C)cc3c2cc(-c2ccccc2)n3C)c1 [NCGC00417192-01],8.91 µM
4,COC(=O)c1ccc(OC)c(Cn2c(=O)n(-c3cccc(Cl)c3)c(=O)c3c2c2cc(C)ccc2n3C)c1 [NCGC00104930-01],31.6 µM
5,Fc1cc(F)cc(Cc2nc3nccc(-c4cc5ccccc5o4)n3n2)c1 [NCGC00424555-01],12.6 µM
6,Cc1cccc(-n2ncc3c(Nc4ccc(Oc5ccc(Cl)cc5)cc4)ncnc32)c1 [NCGC00138820-01],12.6 µM
7,Cc1cc(C)c(CNC(=O)c2nc(-c3cccc(C(F)(F)F)c3)cc3[nH]ccc23)c(=O)[nH]1 [NCGC00411596-01],8.91 µM
8,CCOC(=O)c1c(-c2ccc(OC)cc2)oc2ccc(OCc3ccc(F)cc3F)cc12 [NCGC00099773-01],31.6 µM
9,COc1ccc(-c2cc(C(=O)Oc3ccc(C)c(C)c3)c3ccccc3n2)cc1 [NCGC00099485-01],15.8 µM
10,CC(C)c1ccc2oc(-c3ccc(NC(=O)c4cc5ccccc5o4)cc3)nc2c1 [NCGC00099237-01],22.4 µM
11,CCOc1ccc(-n2nc(CO)c(C(=O)NCC(c3ccccc3)c3ccccc3)n2)cc1 [NCGC00117127-01],22.4 µM
12,Cn1nnc(-c2ccc(-c3ccc(N4C[C@H](COP(=O)(O)O)OC4=O)cc3F)cn2)n1 [NCGC00482851-02],35.5 µM
13,CCOC(=O)c1cccc(Nc2ccc3cc(S(=O)(=O)N4CCCCC4)ccc3n2)c1 [NCGC00127764-01],14.1 µM
14,COC(=O)CNC(=O)c1nc(-c2cccc(C(F)(F)F)c2)c2ccccn12 [NCGC00476320-01],15.8 µM
15,CC(=O)Nc1cccc(-c2cc3c(ccn3C)c(C(=O)NCc3c(C)cc(C)[nH]c3=O)n2)c1 [NCGC00411690-01],17.8 µM
16,COC(=O)c1ccc(Nc2nc(-c3ccc(C)cc3)nc3ccccc23)cc1 [NCGC00099825-01],17.8 µM
17,COC(=O)c1ccccc1NC(=O)CCCS(=O)(=O)c1nc(-c2ccccc2OC)cc(C(F)(F)F)n1 [NCGC00103995-01],14.1 µM
18,Cn1ccc2c(C(=O)NCCc3cnc[nH]3)nc(-c3cnn(Cc4ccccc4)c3)cc21 [NCGC00411713-01],35.5 µM
19,OCCn1cc(-c2cnc3nnn(Cc4ccc5ncccc5c4)c3n2)cn1 [NCGC00263161-11],19.9 µM
20,Cc1cc(C(=O)Nc2cc(Oc3ccc4nc(NC(=O)C5CC5)cn4n3)ccc2C)n(C)n1 [NCGC00485933-01],31.6 µM
21,O=C(OCC(O)CO)c1ccccc1Nc1ccnc2c(C(F)(F)F)cccc12 (centres unmarked) [NCGC00249912-01],31.6 µM
22,COC(=O)Cc1c(C)c2ccc3c(c2oc1=O)CN(Cc1ccc(C)cc1)CO3 [NCGC00116348-01],15.8 µM
23,Nc1n[nH]c(CNc2cc(-c3ccc(F)cc3)nc3ccnn23)n1 [NCGC00434595-01],19.9 µM

# Same assay, conditions: hits from NCATS in-house library screening; read-out: IC50, TMPRSS2 biochemical assay
row,Structure (SMILES),IC50
1,CCOC(=O)CCN(C(=O)c1ccc2c(c1)nc(CNc1ccc(C(=N)N)cc1)n2C)c1ccccn1 [dabigatran ethyl ester],2.24 µM

# Same assay, conditions: second round of screening on the NCATS in-house library (dynamic h-score selection); read-out: IC50
row,Structure (SMILES),IC50
1,Cc1ccc(C(=O)Oc2ccc(C(O)CNC(C)(C)C)cc2OC(=O)c2ccc(C)cc2)cc1 (centres unmarked) [NCGC00253593-01],14.1 µM
2,O=C(OCC1CCCO1)c1ccc2c(c1)N(Cc1ccc(F)cc1)C(=O)c1ccccc1S2(=O)=O (centres unmarked) [NCGC00127812-01],15.8 µM
3,Nc1nn(-c2ccccc2)nc1C(=O)OCc1ccccc1 [NCGC00102837-01],17.8 µM
4,Nc1nn(-c2ccccc2)nc1C(=O)OCc1ccccc1Br [NCGC00102940-01],17.8 µM
5,CC(=O)Nc1ccc(CN2C(=O)OC3(CCN(C(=O)c4cccc(C#N)c4)CC3)C2(C)c2ccccc2)cc1 (centres unmarked) [NCGC00415676-01],31.6 µM
6,COc1cccc(COC(=O)c2ccc(-c3nnn(Cc4ccccc4)n3)cc2)c1 [NCGC00102929-01],17.8 µM
7,Cc1cc(-c2cc3c(nc2-c2ccccc2)nc(C(=O)NCCN(C)C)n3C)ccn1 [NCGC00417822-01],19.9 µM
